This is an account of results in PMC6959985 (Analytical chemistry, 2019).

In data set [1] the target is T1, KLHDC2 (Homo sapiens, UniProt Q9Y2U9).
T1 sequence (Q9Y2U9 1-406): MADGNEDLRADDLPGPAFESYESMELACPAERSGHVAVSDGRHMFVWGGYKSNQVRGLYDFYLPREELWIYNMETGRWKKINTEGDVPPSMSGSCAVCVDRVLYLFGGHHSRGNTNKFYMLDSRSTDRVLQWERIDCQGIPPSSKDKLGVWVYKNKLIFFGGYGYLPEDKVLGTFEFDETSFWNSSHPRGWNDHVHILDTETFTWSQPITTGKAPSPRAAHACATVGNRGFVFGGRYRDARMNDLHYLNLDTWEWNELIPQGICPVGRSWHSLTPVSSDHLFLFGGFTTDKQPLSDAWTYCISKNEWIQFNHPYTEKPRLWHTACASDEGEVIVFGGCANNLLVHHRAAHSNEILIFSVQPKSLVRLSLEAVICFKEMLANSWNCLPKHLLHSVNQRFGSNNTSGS

Data set [2] has as its target T1, KLHDC2. In words: Luminescence-based competition assay. As to conditions: discussion of binding of both peptides; HLRGSPPPMAGG characterized in ref [19].
Data set [3] addresses T1, KLHDC2. To be noted: recently characterized selenoprotein fragment, comparison value; ref [19]; cited from earlier work.
The target of data set [4] is T2, KLHDC2 (as used in the AlphaScreen competition assay) (human, UniProt Q9Y2U9 1-406).
T2 sequence (looked up): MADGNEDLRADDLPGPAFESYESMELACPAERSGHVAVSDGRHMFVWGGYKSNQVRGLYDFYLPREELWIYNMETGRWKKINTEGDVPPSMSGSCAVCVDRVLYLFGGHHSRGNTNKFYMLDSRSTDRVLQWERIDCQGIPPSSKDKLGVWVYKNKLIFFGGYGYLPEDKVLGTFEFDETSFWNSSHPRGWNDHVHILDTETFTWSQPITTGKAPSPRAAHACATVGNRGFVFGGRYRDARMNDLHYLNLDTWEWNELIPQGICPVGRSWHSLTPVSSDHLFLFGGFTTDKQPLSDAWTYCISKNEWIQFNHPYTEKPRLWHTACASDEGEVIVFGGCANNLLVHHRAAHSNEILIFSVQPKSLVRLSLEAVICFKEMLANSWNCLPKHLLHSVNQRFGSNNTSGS
In words: AlphaScreen or HTRF.

Where no end group is shown, it is not given here.

Usually IC50 stands for the midpoint of a concentration-inhibition curve.

As to ASDEGEVIVFGG [ASDEGEVIVFGG], the “Identification as interacting peptide by native top-down MS” value (from here on “Identification as interacting peptide”) at KLHDC2 [1] is reported as “identified using native top-down MS”.
Turning to EKGGGSGGG, at KLHDC2 [1], the “Identification as interacting peptide” value was “identified using native top-down MS”.
For GGGSGGG, the “Identification as interacting peptide” value at KLHDC2 [1] was “identified using native top-down MS”.
On to HLRGSPPPMAGG, for which the “Binding to KLHDC2” value at KLHDC2 [2] is given as “extremely tight binding”. The IC50 on KLHDC2 [3] was 3.4 nM.
As to ASDEGEVIVFGG [synthesized peptide F (ASDEGEVIVFGG)], the IC50 in data set [4] is 5.3 nM.
